Results published in patent US11807625B2, “Capsid inhibitors for the prevention of HIV” (Gilead Sciences, Inc., priority 2019, dated 2023).

Assay: PK of compound of Formula (Ia) after single subcutaneous dose of solution formulations in Wistar Han rats
Type: in vivo
Settings: male, Wistar Han, rat, plasma, sc, 50 mg/kg, SC 50 mg/kg
Experimental: Formulations containing the compound of Formula (Ia), or a pharmaceutically acceptable salt thereof, were prepared as solutions and optionally administered subcutaneously or intramuscularly to rats, rabbits, and/or dogs.
(§1) A solution of about 400 mg/mL of the compound of Formula (Ia) having 19.14 w/w % water, 40.66 w/w % PEG 300, 35.20 w/w % of a sodium salt of a compound of Formula (Ia), and 5.00% ethanol was prepared. The solution was administered subcutaneously to male Wistar Han rats at a dose level of about 50 mg/kg and dose volume of 0.125 mL/kg and the pharmacokinetic (PK) profile was determined.
as §1, with “500” for “400”, “16.64” for “19.14”, “35.36” for “40.66”, “43.00” for “35.20”, “0.1” for “0.125”
(§2) A solution of about 400 mg/mL of the compound of Formula (Ia) having 17.00 w/w % water, 36.40 w/w % PEG 300, 35.20 w/w % of a sodium salt of a compound of Formula (Ia), 5.00 w/w % ethanol, and 6.40 w/w % poloxamer 188 was prepared. The solution was administered subcutaneously to male beagle dogs at a dose level of about 12 mg/kg and male Wistar Han rats at a dose level of about 50 mg/kg. The pharmacokinetic profiles were determined, and the results for dogs are summarized in Table and Table, while the results for rats are summarized in Table and Table below.
as §2, with “500” for “400”, “14.06” for “17.00”, “30.12” for “36.40”
A solution of about 300 mg/mL of the compound of Formula (Ia) having 23.33 w/w % water, 48.99 w/w % PEG 300, 26.47 w/w % of a sodium salt of a compound of Formula (Ia), and 1.21 w/w % poloxamer 188 was prepared. The solution was administered subcutaneously to male beagle dogs at a dose level of about 6 mg/kg and male Wistar Han rats at a dose level of about 50 mg/kg. The pharmacokinetic profiles were determined, and the results for dogs are summarized in Table and Table, while the results for rats are summarized in Table and Table below.
as §2, with “18.80” for “17.00”, “40.25” for “36.40”, “34.38” for “35.20”, “1.57” for “6.40”
as §2, with “500” for “400”, “16.29” for “17.00”, “34.88” for “36.40”, “41.92” for “35.20”, “1.91” for “6.40”
A solution of about 400 mg/mL of the compound of Formula (Ia) having 20.90 w/w % water, 44.72 w/w % PEG 300, and 34.38 w/w % of a sodium salt of a compound of Formula (Ia) was prepared. […]

[1] = mean, n = 3 rats, solution R, 400 mg/mL
[2] = mean, n = 3 rats, solution S, 500 mg/mL
[3] = mean, n = 3 rats, solution V, 300 mg/mL
[4] = mean, n = 5 rats, solution T, 400 mg/mL
[5] = mean, n = 5 rats, solution U, 500 mg/mL
[6] = individual rats, solution R, 400 mg/mL
[7] = individual rats, solution S, 500 mg/mL
[8] = individual rats, solution V, 300 mg/mL
[9] = mean (rat #1 NS), solution T, 400 mg/mL
[10] = Wistar Han rats, 400 mg/mL solution AA (6.25% poloxamer 188), Mean n = 4
[11] = Wistar Han rats, 400 mg/mL solution AA (6.25% poloxamer 188), animals #1-#4

CC(C)(C#Cc1ccc(-c2ccc(Cl)c3c(NS(C)(=O)=O)nn(CC(F)(F)F)c23)c([C@H](Cc2cc(F)cc(F)c2)NC(=O)Cn2nc(C(F)(F)F)c3c2C(F)(F)[C@@H]2C[C@H]32)n1)S(C)(=O)=O [compound of Formula (Ia)]
concentration at 672 h [1]: 339 nM
concentration at 672 h [2]: 296 nM
concentration at 672 h [3]: 308 nM
concentration at 672 h [4]: 298 nM
concentration at 672 h [5]: 296 nM
concentration at 840 h [6]: 295 nM
concentration at 840 h [7]: 429 nM
concentration at 840 h [8]: 285 nM
concentration at 840 h [1]: 350 nM
concentration at 840 h [2]: 300 nM
concentration at 840 h [3]: 308 nM
concentration at 840 h [4]: 215 nM
concentration at 840 h [5]: 261 nM
concentration at 1008 h [6]: 303 nM
concentration at 1008 h [1]: 354 nM
concentration at 1008 h [2]: 300 nM
concentration at 1008 h [3]: 258 nM
concentration at 1008 h [4]: 207 nM
concentration at 1008 h [5]: 284 nM
concentration at 1334 h [6]: 296 nM
concentration at 1334 h [7]: 398 nM
concentration at 1334 h [1]: 328 nM
concentration at 1334 h [2]: 300 nM
concentration at 1344 h [8]: 272 nM
concentration at 1344 h [3]: 301 nM
concentration at 1344 h [4]: 159 nM
concentration at 1344 h [5]: 226 nM
concentration at 1680 h [6]: 271 nM
concentration at 1680 h [7]: 342 nM
concentration at 1680 h [8]: 221 nM
concentration at 1680 h [9]: 145 nM
concentration at 1680 h [1]: 277 nM
concentration at 1680 h [2]: 249 nM
concentration at 1680 h [3]: 250 nM
concentration at 1680 h [5]: 198 nM
concentration at 2016 h [6]: 199 nM
concentration at 2016 h [7]: 221 nM
concentration at 2016 h [8]: 138 nM
concentration at 2016 h [9]: 140 nM
concentration at 2016 h [1]: 202 nM
concentration at 2016 h [2]: 171 nM
concentration at 2016 h [3]: 181 nM
concentration at 2016 h [5]: 174 nM
concentration at 2352 h [6]: 183 nM
concentration at 2352 h [7]: 231 nM
concentration at 2352 h [8]: 122 nM
concentration at 2352 h [9]: 117 nM
concentration at 2352 h [1]: 182 nM
concentration at 2352 h [2]: 173 nM
concentration at 2352 h [3]: 165 nM
concentration at 2352 h [5]: 167 nM
concentration at 2688 h [6]: 168 nM
concentration at 2688 h [7]: 171 nM
concentration at 2688 h [8]: 113 nM
concentration at 2688 h [9]: 162 nM
concentration at 2688 h [1]: 154 nM
concentration at 2688 h [2]: 148 nM
concentration at 2688 h [3]: 141 nM
concentration at 2688 h [5]: 108 nM
concentration at 3024 h [6]: 136 nM
concentration at 3024 h [7]: 125 nM
concentration at 3024 h [8]: 81.4 nM
concentration at 3024 h [9]: 131 nM
concentration at 3024 h [1]: 122 nM
concentration at 3024 h [2]: 108 nM
concentration at 3024 h [3]: 99.1 nM
concentration at 3024 h [5]: 102 nM
concentration at 3360 h [6]: 132 nM
concentration at 3360 h [7]: 135 nM
concentration at 3360 h [8]: 81.1 nM
concentration at 3360 h [9]: 117 nM
concentration at 3360 h [1]: 111 nM
concentration at 3360 h [2]: 110 nM
concentration at 3360 h [3]: 77.4 nM
concentration at 3360 h [5]: 88 nM
concentration at 3696 h [7]: 102 nM
concentration at 3696 h [8]: 72.2 nM
concentration at 3696 h [9]: 73.7 nM
concentration at 3696 h [1]: 94.8 nM
concentration at 3696 h [2]: 92 nM
concentration at 3696 h [3]: 68.4 nM
concentration at 3696 h [5]: 70.5 nM
concentration at 4032 h [7]: 118 nM
concentration at 4032 h [8]: 56.6 nM
concentration at 4032 h [9]: 71.5 nM
concentration at 4032 h [1]: 102 nM
concentration at 4032 h [2]: 110 nM
concentration at 4032 h [3]: 52.3 nM
concentration at 4032 h [5]: 65.7 nM
concentration at 4704 h [7]: 62.9 nM
concentration at 4704 h [8]: 35.9 nM
concentration at 4704 h [9]: 44.3 nM
concentration at 4704 h [1]: 69 nM
concentration at 4704 h [2]: 71.5 nM
concentration at 4704 h [3]: 30.2 nM
concentration at 4704 h [5]: 43.1 nM
concentration at 5376 h [9]: 34.4 nM
concentration at 5376 h [1]: 58 nM
concentration at 5376 h [2]: 58.8 nM
concentration at 5376 h [5]: 38.9 nM
concentration at 6048 h [9]: 29 nM
concentration at 6048 h [1]: 30.2 nM
concentration at 6048 h [2]: 45 nM
concentration at 6048 h [5]: 36.2 nM
concentration at 6720 h [9]: 21.5 nM
concentration at 6720 h [1]: 26.3 nM
concentration at 6720 h [2]: 37 nM
concentration at 6720 h [5]: 26.5 nM
concentration at 7392 h [1]: 16.5 nM
concentration at 7392 h [2]: 29.4 nM
concentration at 8064 h [1]: 12.3 nM
concentration at 8064 h [2]: 24.8 nM
concentration at 1 h [10]: 35.9 nM
concentration at 1 h [11]: 29 nM
concentration at 3 h [10]: 69.5 nM
concentration at 3 h [11]: 67.9 nM
concentration at 8 h [10]: 122 nM
concentration at 8 h [11]: 109 nM
concentration at 24 h [10]: 233 nM
concentration at 24 h [11]: 259 nM
concentration at 48 h [10]: 251 nM
concentration at 48 h [11]: 272 nM
concentration at 72 h [10]: 227 nM
concentration at 72 h [11]: 231 nM
concentration at 96 h [10]: 201 nM
concentration at 96 h [11]: 211 nM
concentration at 168 h (Wistar Han rats, 400 mg/mL solution AA (6.25% poloxamer 188), 168 h, Mean n = 4): 141 nM
concentration at 336 h (Wistar Han rats, 400 mg/mL solution AA (6.25% poloxamer 188), 336 h, Mean n = 4): 130 nM
concentration at 504 h (Wistar Han rats, 400 mg/mL solution AA (6.25% poloxamer 188), 504 h, Mean n = 4): 131 nM
concentration at 672 h [10]: 117 nM
concentration at 672 h [11]: 130 nM
concentration at 840 h [10]: 118 nM
concentration at 840 h [11]: 170 nM
concentration at 1008 h [10]: 103 nM
concentration at 1008 h [11]: 134 nM
concentration at 1344 h [10]: 77.1 nM
concentration at 1344 h [11]: 93 nM
concentration at 1680 h [10]: 63.8 nM
